Test system: Panc-1 xenografts
Assay: Liposomal release from tumors following intratumoral administration
Type: in vivo, nude mice
Conditions: 2 hours following injection, 5 nmol
Experimental: FIG. 13. Example of spatial and temporal control of PoP-liposome permeabilization a) Spatial control of B. subtilis killing with triggered antibiotic release. Gentamicin was loaded in PoP-liposomes and embedded in hot agar along with the bacteria. The indicated spot was irradiated with a 658 nm laser (200 mW/cm^2) for 10 minutes and the plates were photographed 24 hours later. b) Temporal control of cargo release in Panc-1 xenografts. Mice were imaged following intratumoral injection of 5 nmol of either free sulforhodamine B or sulforhodamine B entrapped at self-quenching concentrations in PoP-liposomes. Representative images are shown of the indicated time points and conditions. Laser activation was performed after 2 hours. Representative results shown with n=3 mice per treatment group.
Liposomal release from tumors following intratumoral administration: Panc-1 tumors were grown by injecting 20 g female nude mice (Charles River) with 3×10^6 Panc-1 cells in a 1:1 matrigel dilution (BD Biosciences) in the hind flank of the mice. Following several weeks of growth, the tumors were carefully injected intratumorally with sulforhodamine B-PoP-liposomes. Images were acquired with an in vivo fluorescence imager (IVIS Lumina II) at the indicated time points with the mice under isoflurane-induced anesthesia. […]

With `CCN(CC)c1ccc2c(-c3ccc(S(=O)(=O)O)cc3S(=O)(=O)[O-])c3ccc(=[N+](CC)CC)cc-3oc2c1` [free rhodamine, sulforhodamine B] the “fluorescence in tumor after intratumoral injection” value was “little fluorescence remaining in the tumor”.
